# Reference: patent US11571418B2, “Platinum compounds that inhibit constitutive STAT3 signaling and induce cell cycle arrest and apoptosis of malignant cells” (H. LEE MOFFITT CANCER CENTER AND RESEARCH INSTITUTE, INC., priority 2011, dated 2023)
# Assays:
# [1] = system: MDA-MB-453; assay: Ki67 proliferation index by immunohistochemistry; type: cell-based, human; conditions: no persistent Stat3 activity
# Procedure: FIGS. 5A and 5B. Evaluation for effects of PLATINUM-401 on cellular constitutive Stat3 activation and cell proliferation. Normal or malignant cells were treated with or without PLATINUM-401 and nuclear extracts were prepared for Stat3 DNA-binding activity assay with hSIE probe, or cells were processed for nuclear Ki67 immunohistochemistry. (FIG. 5A) EMSA analysis of Stat3 DNA-binding activity; (FIG. 5B) Graphical representations of quantified nuclear staining of Ki-67 proliferation index. Stat3:Stat3-DNA complexes in gels are labeled. The Ki-67 proliferation indexes were calculated as the percent positive tumor cells relative to the total number of cells. […]
# Immunohistochemistry—The indirect peroxidase-antiperoxidase test was performed on cytospins prepared from cell lines (control and treated). […] The presence of Ki-67 nuclear staining was calculated as percent positive tumor cells in relation to the total number of cells.
# The inventors further examined the biological effects of PLATINUM-401 and determined whether any changes might correlate with the inhibition of constitutively-active Stat3. […]
# Changes in cell proliferation induced by treatment with PLATINUM-401 were assayed in terms of Ki67 proliferation index by immunohistochemistry. The presence of Ki-67 nuclear staining was calculated as the percent positive tumor cells in relation to the total number of cells.
# [2] = system: IL-6-induced Stat3 activation in NIH3T3; assay: IL-6-induced Stat3 activation in NIH3T3 (EMSA of nuclear extracts); type: cell-based, mouse
# Procedure: FIGS. 3A-3D. Inhibition of Stat3-mediated gene expression by PLATINUM-401. (FIG. 3A) and (FIG. 3B) v-Src-transformed mouse fibroblasts that stably express Stat3-dependent (NIH3T3/v-Src/pLucTKS3) and Stat3-independent (NIH3T3/v-Src/pRLSRE) luciferase reporters or β-galactosidase (β-gal), as well as normal mouse fibroblast (NIH3T3) transiently transfected with pLucTKS3, pGL2-VEGF-Luc, NFkB-Luc or pLucSRE together with or without v-Src were treated with or without PLATINUM-401 for 48 h. Cytosolic extracts were then prepared from cells for luciferase and […] activities measurements. Values are the means and S.D. of three to five independent assays; (FIG. 3C) and (FIG. 3D) Nuclear extracts or whole cell lysates were prepared from IL-6-stimulated normal mouse fibroblasts (NIH3T3) or their v-Src-transformed counterpart (NIH3T3/v-Src) that are treated with or without PLATINUM-401 for different times. Samples of equal total proteins were then subjected to in vitro DNA-binding activity and EMSA analysis or for SDS-PAGE and Western blot analysis for phosphorylated and total Stat3. […]
# To further investigate the activities of PLATINUM-401, the inventors treated malignant cells and measured effects on Stat3 signaling. […]
# [3] = system: hSIE oligonucleotide probe; assay: Pre-treatment of hSIE oligonucleotide with compound, then Stat3 binding by EMSA; conditions: oligonucleotide treated 30 min, then radiolabeled
# Procedure: To investigate the possibility that PLATINUM-401 might alter the integrity of the hSIE oligonucleotide probe that is used in the DNA-binding activity studies and thereby inhibit Stat3 binding, the oligonucleotide was first treated with PLATINUM-401 for 30 min. Pre-treated oligonucleotide was then radiolabeled and tested for its ability to bind to activated Stat3 in vitro. […] While PLATINUM-401 was in direct contact with the oligonucleotide probe during the pre-treatment stage and prior to radiolabeling of the probe, it is unlikely to have been retained with the oligonucleotide probe following purification of the probe and therefore would not have come into contact with Stat3 protein at the time of the in vitro DNA-binding assay.
# [4] = biological target: T1, E2F1 (Homo sapiens, UniProt Q01094); assay: Non-STAT protein added to activated Stat3 before EMSA (titration of compound); type: binding
# T1 construct: made in house; host or cells: Sf-9 insect cells infected with baculovirus
# T1 sequence (Q01094 whole entry, species assumed): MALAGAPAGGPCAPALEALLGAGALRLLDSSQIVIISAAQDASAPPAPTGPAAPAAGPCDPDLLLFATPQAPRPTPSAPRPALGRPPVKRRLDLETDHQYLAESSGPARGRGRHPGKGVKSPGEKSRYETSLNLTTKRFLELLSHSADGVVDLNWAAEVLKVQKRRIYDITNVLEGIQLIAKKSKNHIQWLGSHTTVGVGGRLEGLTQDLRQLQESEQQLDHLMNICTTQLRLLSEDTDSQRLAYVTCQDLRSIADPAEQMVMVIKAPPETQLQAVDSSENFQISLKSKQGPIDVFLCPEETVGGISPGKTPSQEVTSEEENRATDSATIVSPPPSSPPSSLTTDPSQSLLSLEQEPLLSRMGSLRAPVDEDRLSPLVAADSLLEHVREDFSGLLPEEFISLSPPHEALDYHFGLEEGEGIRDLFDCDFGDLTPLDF
smiles,measurement,setting,value
CC(O)CN1CCN(CC(C)O)CC1 (centres unmarked) [PLATINUM-401],proliferation (Ki67 index),[1],lack of effect
same,time at which IL-6-induced Stat3 activation was inhibited,[2]; IL-6-stimulated NIH3T3,≤ 30 min
same,ligand-induced activation of Stat3 DNA-binding activity,[2]; time- and dose-dependent,inhibits
same,effect of pre-treatment of hSIE oligonucleotide on its ability to bind activated Stat3,[3],no observable effect
same,influence of E2F1 protein on compound's effect on Stat3 DNA-binding activity,[4],failed to significantly influence
